Data: patent publication US12435044B2, “Pyridazinone herbicides and pyridazinone intermediates used to prepare a herbicide” (FMC Corporation, priority 2018, dated 2025)

Tests used:
Type in all cases: in vivo
[1] = system: ryegrass, Italian (Lolium multiflorum); test: Test A pre-/postemergence greenhouse test
Excerpt: (§1) Seeds of plant species selected from barnyardgrass (Echinochloa crus-galli), kochia (Kochia scoparia), ragweed (common ragweed, Ambrosia elatior), ryegrass, Italian (Lolium multiflorum), foxtail, giant (Setaria faberii), foxtail, green (Setaria viridis) and pigweed (Amaranthus retroflexus) were planted into a blend of loam soil and sand and treated preemergence with a directed soil spray using test chemicals formulated in a non-phytotoxic solvent mixture which included a surfactant.
(§2) At the same time, plants selected from these weed species and also wheat (Triticum aestivum), corn (Zea mays), blackgrass (Alopecurus myosuroides) and galium (catchweed bedstraw, Galium aparine) were planted in pots containing the same blend of loam soil and sand and treated with postemergence applications of test chemicals formulated in the same manner. Plants ranged in height from 2 to 10 cm and were in the one- to two-leaf stage for the postemergence treatment. Treated plants and untreated controls were maintained in a greenhouse for approximately 10 d, after which time all treated plants were compared to untreated controls and visually evaluated for injury. Plant response ratings, summarized in Table A, are based on a 0 to 100 scale where 0 is no effect and 100 is complete control. A dash (-) response means no test result.

kochia (Kochia scoparia) = test: Test A pre-/postemergence greenhouse test
Excerpt: as §1, §2

[2] = system: ragweed (common ragweed, Ambrosia elatior); test: Test A pre-/postemergence greenhouse test
Excerpt: as §1, §2

[3] = system: pigweed (Amaranthus retroflexus); test: Test A pre-/postemergence greenhouse test
Excerpt: as §1, §2

[4] = system: barnyardgrass (Echinochloa crus-galli); test: Test A pre-/postemergence greenhouse test
Excerpt: as §1, §2

[5] = system: blackgrass (Alopecurus myosuroides); test: Test D pre-/postemergence controlled growth environment test; conditions: Postemergence
Excerpt: (§3) Seeds of plant species selected from blackgrass (Alopecurus myosuroides), galium (catchweed bedstraw, Galium aparine), kochia (Kochia scoparia), oilseed rape (Brassica napus), barley, spring (Hordeum vulgare), wheat, spring (Triticum aestivum), oat, wild (Avena fatua), barley, winter (Hordeum vulgare) and wheat, winter (Triticum aestivum) were planted into a silt loam soil and treated preemergence with test chemicals formulated in a non-phytotoxic solvent mixture which included a surfactant.
(§4) At the same time, plants selected from these crop and weed species and also bluegrass (annual bluegrass, Poa annua), canarygrass (littleseed canarygrass, Phalaris minor), chickweed (common chickweed, Stellaria media), bromegrass, downy (downy bromegrass, Bromus tectorum), field poppy (Papaver rhoeas), field violet (Viola arvensis), foxtail, green (Setaria viridis), deadnettle (henbit deadnettle, Lamium amplexicaule), ryegrass, Italian (Lolium multiflorum), lambsquarters (Chenopodium album), pigweed (Amaranthus retroflexus), chamomile (scentless chamomile, Matricaria inodora), Russian thistle (Salsola kali), speedwell (bird's-eye speedwell, Veronica persica), buckwheat, wild (Polygonum convolvulus), mustard, wild (Sinapis arvensis), radish, wild (Raphanus raphanistrum), windgrass (Apera spica-venti), geranium, cutleaf (Geranium dissectum) and Canada thistle (Cirsium arvense) were planted in pots containing Redi-Earth® planting medium (Scotts Company, 14111 Scottslawn Road, Marysville, Ohio 43041) comprising spaghnum peat moss, vermiculite, wetting agent and starter nutrients and treated with postemergence applications of the test chemicals formulated in the same manner. Plants ranged in height from 2 to 18 cm (1- to 4-leaf stage). Treated plants and controls were maintained in a controlled growth environment for 14 to 21 d after which time all species were compared to controls and visually evaluated. Plant response ratings, summarized in Table D, are based on a scale of 0 to 100 where 0 is no effect and 100 is complete control. A dash (-) response means no test result.

[6] = system: barley, winter (Hordeum vulgare); test: as above; conditions: Postemergence
Excerpt: as §3, §4

[7] = system: wheat, spring (Triticum aestivum); test: as above; conditions: Postemergence
Excerpt: as §3, §4

[8] = system: oilseed rape (Brassica napus); test: as above; conditions: Postemergence
Excerpt: as §3, §4

[9] = system: rice (transplanted and water seeded, Oryza sativa); test: Test C flooded paddy test; conditions: Flood, scale 0 to 100
Excerpt: (§5) Plant species in the flooded paddy test consisted of rice (transplanted and water seeded, Oryza sativa), sedge, umbrella (small-flower umbrella sedge, Cyperus difformis), ducksalad (Heteranthera limosa), Bulrush, Japanese (Scirpus juncoides) and barnyardgrass (Echinochloa crus-galli) grown to the 2-leaf stage for testing. At time of treatment, test pots were flooded to 3 cm above the soil surface, treated by application of test compounds directly to the paddy water, and then maintained at that water depth for the duration of the test. Treated plants and controls were maintained in a greenhouse for 13 to 15 d, after which time all species were compared to controls and visually evaluated. Plant response ratings, summarized in Table C are based on a scale of 0 to 100 where 0 is no effect and 100 is complete control. A dash (-) response means no test result.

[10] = system: ducksalad (Heteranthera limosa); test: Test C flooded paddy test; conditions: Flood, scale 0 to 100
Excerpt: as §5

[11] = system: barnyardgrass (Echinochloa crus-galli); test: Test C flooded paddy test; conditions: Flood, scale 0 to 100
Excerpt: as §5

[12] = system: sedge, umbrella (small-flower umbrella sedge, Cyperus difformis); test: Test C flooded paddy test; conditions: Flood, scale 0 to 100
Excerpt: as §5

Row | SMILES | Plant response rating (0 to 100 scale) ([1]; Postemergence, 31 g ai/ha) | Plant response rating (0 to 100 scale) ([1]; Postemergence, 125 g ai/ha) | Plant response rating (0 to 100 scale) ([1]; Preemergence, 31 g ai/ha) | Plant response rating (0 to 100 scale) ([1]; Preemergence, 125 g ai/ha) | Plant response rating (0 to 100 scale) (kochia (Kochia scoparia); Postemergence, 31 g ai/ha) | Plant response rating (0 to 100 scale) (kochia (Kochia scoparia); Postemergence, 125 g ai/ha) | Plant response rating (0 to 100 scale) (kochia (Kochia scoparia); Preemergence, 31 g ai/ha) | Plant response rating (0 to 100 scale) (kochia (Kochia scoparia); Preemergence, 125 g ai/ha) | Plant response rating (0 to 100 scale) ([2]; Postemergence, 31 g ai/ha) | Plant response rating (0 to 100 scale) ([2]; Postemergence, 125 g ai/ha) | Plant response rating (0 to 100 scale) ([2]; Preemergence, 31 g ai/ha) | Plant response rating (0 to 100 scale) ([2]; Preemergence, 125 g ai/ha) | Plant response rating (0 to 100 scale) ([3]; Postemergence, 31 g ai/ha) | Plant response rating (0 to 100 scale) ([3]; Postemergence, 125 g ai/ha) | Plant response rating (0 to 100 scale) ([3]; Preemergence, 31 g ai/ha) | Plant response rating (0 to 100 scale) ([3]; Preemergence, 125 g ai/ha) | Plant response rating (0 to 100 scale) ([4]; Postemergence, 31 g ai/ha) | Plant response rating (0 to 100 scale) ([4]; Postemergence, 125 g ai/ha) | Plant response rating (0 to 100 scale) ([4]; Preemergence, 31 g ai/ha) | Plant response rating (0 to 100 scale) ([4]; Preemergence, 125 g ai/ha) | other results
1 | Cc1ccc2ccc(Cl)cc2c1-c1c(O)c(Cl)nn(C)c1=O [Cpd. No. 22] | 100 | 100 | 90 | 100 | 60 | 100 | 10 | 90 | 100 | 100 | 100 | 100 | 100 | 100 | 100 | 100 | 100 | 100 | 100 | 100 | Plant response rating, Blackgrass ([5]; 31 g ai/ha): 75; Plant response rating, Blackgrass ([5]; 62 g ai/ha): 82; Plant response rating, Barley, Winter ([6]; 31 g ai/ha): 47; Plant response rating, Barley, Winter ([6]; 62 g ai/ha): 73; Plant response rating, Wheat, Spring ([7]; 31 g ai/ha): 90; Plant response rating, Wheat, Spring ([7]; 62 g ai/ha): 96; Plant response rating, Oilseed Rape ([8]; 31 g ai/ha): 73; Plant response rating, Oilseed Rape ([8]; 62 g ai/ha): 90
2 | Cc1ccc2ccc(F)cc2c1-c1c(O)c(Cl)nn(C)c1=O [Cpd. No. 21] | 90 | 100 | 80 | 100 | 80 | 90 | 50 | 100 | 100 | 100 | 100 | 100 | 100 | 100 | 100 | 100 | 80 | 90 | 90 | 100 | Plant response rating, Rice, Transplanted ([9]; 31 g ai/ha): 0; Plant response rating, Rice, Transplanted ([9]; 62 g ai/ha): 0; Plant response rating, Rice, Transplanted ([9]; 125 g ai/ha): 0; Plant response rating, Rice, Transplanted ([9]; 250 g ai/ha): 15; Plant response rating, Ducksalad ([10]; 31 g ai/ha): 0; Plant response rating, Ducksalad ([10]; 62 g ai/ha): 30; Plant response rating, Ducksalad ([10]; 125 g ai/ha): 80; Plant response rating, Ducksalad ([10]; 250 g ai/ha): 85; Plant response rating, Barnyardgrass ([11]; 31 g ai/ha): 0; Plant response rating, Barnyardgrass ([11]; 62 g ai/ha): 0; Plant response rating, Barnyardgrass ([11]; 125 g ai/ha): 30; Plant response rating, Barnyardgrass ([11]; 250 g ai/ha): 65; Plant response rating, Sedge, Umbrella ([12]; 31 g ai/ha): 0; Plant response rating, Sedge, Umbrella ([12]; 62 g ai/ha): 0; Plant response rating, Sedge, Umbrella ([12]; 125 g ai/ha): 0; Plant response rating, Sedge, Umbrella ([12]; 250 g ai/ha): 0
